The target of one series is retinoid receptors. The following applies: all six subfamilies of retinoid receptors; cited from earlier work.
In series [1] the test system is donor sites (partial-thickness wounds). The following applies: average, silver sulfadiazine cream containing epidermal growth factor; cited from earlier work.
The next series has as its system sebaceous gland. Briefly: Oral hamster sebaceous gland reduction assay. It is filed as in vivo, male Syrian golden hamsters. The arrangement: key to the marks not given beside the values. The following applies: 32 mg/kg. The protocol:
An oral assay for hamster sebaceous gland reduction is conducted.
Hamsters are dosed orally with the test compound and vehicle alone. The reduction in sebaceous gland size is estimated microscopically in relation to the control. The assay is unique and proprietary to Ortho Pharmaceutical Corp. and is based upon the work of Plewig et al. (1977) and Gomex et al. (1980). Plewig, et al., Hamster Ear Model for Sebaceous Glands, J. Invest. Derm. 68: 171-176 (1977). Gomez, et al., Effect of 13-cis-Retinoic Acid on the Hamster Flank Organ, J. Invest. Derm. 74: 392-397 (1980).
For oral (p.o.) studies, male Syrian golden hamsters are […] at 5 ml/kg, once daily, five consecutive days/week for two or three weeks. Modified but similar dosing schedules could be used. Control hamsters are dosed with vehicle alone at 5 ml/kg. Following final treatment (up to 72 hours), the hamsters are sacrificed in a CO2 atmosphere. Samples of each test site are placed into 10% buffered formalin and histologically prepared. Serial sections of each sample are stained (H&E) and examined microscopically.
The reduction in sebaceous gland size is estimated microscopically in relation to the control treated sites. To quantify sebaceous gland size, cross-sectional areas are measured with an image analyzer system.

Series [2] relates to ornithine decarboxylase (ODC). The experiment in a line: ODC/Retinoid Bioassay: inhibition of TPA induced ornithine decarboxylase activity. The following applies: topical, 1.7 nM (as printed in Table 2), TPA induced. It is filed as in vivo, CD-1 mice. How it is done:
The ODC/Retinoid Bioassay is based on the method of Verma, A. K. and Boutwell, R. K., Cancer Res. (1977) 37:2196-2201. The ODC assay measures a compounds effect on the prevention of the induction of ODC, namely the effect of the retinoid compound on the inhibition of the tumor promoter 12-O-tetradecanoylphorbol-13-acetate (TPA) induced ODC activity. The assay is carried out using CD-1 mice (aged 7 to 9 weeks). The dorsal hair of the mice is shaved 3-4 days before testing. Four mice are used for each point. The test retinoids, at one of two dose levels (1.7 and 17 nmoles) dissolved in 0.2 ml of acetone is applied topically to the back of each shaved mouse. A single dose of TPA ([…]) is applied to the back of each treated mouse 30 minutes later. Control groups are treated with either acetone alone, TPA, or tretinoin. The mice are sacrificed by cervical dislocation 5 hours after TPA treatment.
The dorsal skin encompassing the shaved and TPA exposed area is excised and placed in a 100 ml beaker containing distilled water maintained at 51° C.-57° C. The skin is soaked for 50-70 seconds at this temperature with intermittent stirring. The skin is placed epidermis side up in a chilled (0°-5° C.) stainless steel plate and the epidermal layer is scraped off with a razor blade. The epidermal layers from the 4 mice are pooled and placed in a homogenization tube with 2 ml of ODA buffer ([…] with […] pyridoxal phosphate, […] ethylenediaminetetraacetic acid (EDTA), 1 mM dithiothreitol, pH 7.5). The pooled epidermal layers are homogenized for 15 seconds at 0° C. using a Polytron homogenizer at a setting of 7.5. The homogenate is centrifuged at 30,000×g and the supernatant fraction is pipetted into a storage tube and frozen for about 72 hours.
The homogenate is assayed for ODC activity as described by Verma and Boutwell to measure the release of ^14 CO2 from labeled DL(1-14C) ornithine. Incubations are carried out in disposable centrifuge tubes with center well holders containing filter paper impregnated with sodium hydroxide to absorb ^14 CO2. The incubation mixture consisted of 90 μl of L-ornithine, 350 μl of ODC buffer, 100 μl of 14C-ornithine (1.32 nm, Sp. Act:4.4 pCi/pM) and 10 μl of test sample. After incubation at 37° C. for 45 minutes, 0.5 ml of 2M chilled citric acid (4° C.) is added and incubation is continue for an additional 30 minutes to insure complete absorption of ^14 CO2. The filter paper is removed from the center well holders and set in 1 ml of water in capped scintillation vials for at least 1 hour before adding RBI 3820 scintillation cocktail. Radioactivity is measured in a Tri Carb Scintillation Counter. Results are expressed as pmol of ^14 CO2 released in 30 minutes per milligram of protein based on the specific activity of DL-14C-ornithine. The results are expressed in Table 2 below as the % reduction in ODC activity as compared to the control, for the compounds of each of the preceding Examples: […]

Series [3] deals with ulceration of both lower legs. The following applies: one patient, livedoid vasculitis; cited from earlier work.
Series [4] concerns skin (inner forearm, cheek). Briefly: Topical assay for comparative dermal irritation in human subjects. It is filed as in vivo, human (patients). The protocol:
2-(9-cis-retinoyloxy)-4-methoxyacetophenone is evaluated in a study of its potential to produce dermal irritation. Comparisons are made of tretinoin, isotretinoin, 2-(9-cis-retinoyloxy)-4-methoxyacetophenone, and the vehicle solution.
In the first test, four solutions are used. The control consists of vehicle solution, namely a solution of 60% by volume ethanol and 40% by volume polyethylene glycol. The other three solutions are 0.025% solutions of tretinoin, isotretinoin, or 2-(9-cis-retinoyloxy)-4-methoxyacetophenone in 60% by volume ethanol and 40% by volume polyethylene glycol. Four patients paint two saturated cotton swabs of each of the four solutions on four different areas of the inner forearm, twice daily for ten days.
In the second test, four other solutions are used. The control consists of vehicle solution, namely a solution of 90% by volume ethanol and 10% by volume polyethylene glycol. The other three solutions are 0.075% solutions of tretinoin, isotretinoin, or 2-(9-cis-retinoyloxy)-4-methoxyacetophenonein 90% by volume ethanol and 10% by volume polyethylene glycol. Four patients paint two saturated cotton swabs of each of the four solutions on four different areas of the inner forearm, twice daily for ten days. Only one subject experiences an irritant reaction. […] By day nine, both areas are still reacting, the tretinoin area more intensely than the isotretinoin area. There is no reaction in either the 2-(9-cis-retinoyloxy)-4-methoxyacetophenone or the control areas.
In the third test, three solutions are used. The three solutions are 0.075% solutions of tretinoin, isotretinoin, or 2-(9-cis-retinoyloxy)-4-methoxyacetophenone in 90% by volume ethanol and 10% by volume polyethylene glycol. Four patients paint two saturated cotton swabs of the 2-(9-cis-retinoyloxy)-4-methoxyacetophenone solution twice daily on one cheek of their faces. To the other cheek they apply two saturated cotton swabs of either tretinoin or isotretinoin.
The tests are carried out in double-blind fashion, that is, neither the subjects nor the investigator know the contents of the solutions during the study.
Clinical assessments are made daily of the subjects cheeks. All subjects develop irritant reactions by the third or fourth day of the study.

Turning to `CC1=C(/C=C/C(C)=C\C=C\C(C)=C\C(=O)O)C(C)(C)CCC1` [9-cis-retinoic acid], at retinoid receptors, the “Equilibrium constants in competitive binding” value is given as “lowest equilibrium constants of all retinoids for all six subfamilies of retinoid receptors”.
Turning to epidermal growth factor, in series [1], the “Acceleration of donor site healing time” value is reported as 1.5 days.
For `CCCCCCCCCC(=O)OCC(=O)COC(=O)/C=C(C)/C=C/C=C(C)\C=C\C1=C(C)CCCC1(C)C` [Compound 3, 1-(9-cis-retinoyloxy)-3-decanoylyoxy-2-propanone], the Sebaceous gland reduction result with sebaceous gland is “+++”. In addition, the ODC activity reduction result in series [2] is listed as “+++”.
Regarding `O=C(c1ccc(F)cc1)C1CCN(CCn2c(=O)[nH]c3ccccc3c2=O)CC1` [Ketanserin], the “Effect on recalcitrant ulceration” value in series [3] was “healed the lesions in a patient with recalcitrant ulceration of both lower legs”.
Regarding `CC1=C(/C=C/C(C)=C/C=C/C(C)=C\C(=O)O)C(C)(C)CCC1` [13-cis-retinoic acid], the Sebaceous gland reduction result in the series on sebaceous gland is “++”. For the same compound, the “Irritant reactions, inner forearm” value in series [4] (first test, 0.025% solution, twice daily for ten days) was “No irritant reactions occur”. Also, the “Irritant reaction, inner forearm” value in series [4] (second test, 0.075% solution, twice daily for ten days, one subject of four reacted) was “On day seven, the isotretinoin area begins reacting with redness and peeling”. Further, in series [4] (third test, 0.075% solution, twice daily, six days), the “Irritation of the cheeks” value was “reactions which are so intense with redness and peeling that all subjects discontinue application on or before the sixth day”.

(Values after US5837728A, “9-cis retinoic acid esters and amides and uses thereof” (priority 1995, dated 1998).)
